Source: US20240415918A1, “Polypeptide and its use as a CCK receptor agonist/antagonist” (Centre for Regenerative Medicine & Health, Hong Kong …, priority 2021, published 2024)
Where a SMILES comes first, the peptide text is derived from it. [ ]: non-standard residue; d: D form. The star is where a group is joined. Trp(5-OH) = N[C@@H](Cc1c[nH]c2ccc(O)cc12)C(=O)O; dTrp(5-OH) = N[C@H](Cc1c[nH]c2ccc(O)cc12)C(=O)O; Phe(3-Br) = N[C@@H](Cc1cccc(Br)c1)C(=O)O; dNMeW = CN[C@H](Cc1c[nH]c2ccccc12)C(=O)O; Fmoc = O=C(OCC1c2ccccc2-c2ccccc21)*; Nle = CCCC[C@H](N)C(=O)O

How the values were obtained:
[1] = target: T1, CCK-B receptors (CHO-CCK) (Homo sapiens, UniProt P32239); assay: Calcium flux (Fluo-8) agonist test on CHO-CCK model cells; format: cell-based; conditions: for EC50: CHO-CCK cells; for Agonistic Activity (%) at 10 μM: compound at 10 μM, percentage of signal of 20 nM CCK8 alone
T1 construct: expressed in transfected cells; host or cells: CHO (CHO-CCK model cells)
T1 sequence (P32239 1-447): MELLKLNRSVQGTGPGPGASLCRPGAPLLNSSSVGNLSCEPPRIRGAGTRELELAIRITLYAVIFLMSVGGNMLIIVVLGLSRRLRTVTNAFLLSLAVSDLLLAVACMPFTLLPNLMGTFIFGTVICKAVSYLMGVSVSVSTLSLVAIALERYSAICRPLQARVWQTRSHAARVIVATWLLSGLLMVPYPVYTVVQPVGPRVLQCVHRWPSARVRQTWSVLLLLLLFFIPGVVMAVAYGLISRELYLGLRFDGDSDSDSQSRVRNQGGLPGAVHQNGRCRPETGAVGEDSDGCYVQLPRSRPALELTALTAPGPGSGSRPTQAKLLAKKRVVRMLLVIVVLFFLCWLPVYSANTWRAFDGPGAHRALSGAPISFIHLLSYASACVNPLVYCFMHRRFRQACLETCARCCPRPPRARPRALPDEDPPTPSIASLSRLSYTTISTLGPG
Procedure, shortened: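 Agonist-mode Fluo-8 calcium flux read on CHO-CCK cells after dye loading 30 min at 37 °C plus 30 min at room temperature.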

[2] = target: T1, CCK-B receptors (CHO-CCK); assay: Calcium flux (Fluo-8) antagonist test on CHO-CCK model cells in presence of CCK8; format: cell-based
[3] = compound alone, 100% = 20 nM CCK8
[4] = compound together with 10 nM CCK8
[5] = compound together with 10 nM CCK8, bound in μM
[6] = Fluo-8 calcium flux, 100% control = 20 nM CCK8
[7] = in presence of 10 nM CCK8, bound in μM

Compound	EC50 [1, 3]	EC50 [1, 6]	EC50 [2, 7]	further results
CCCC[C@H](NC(=O)[C@@H](Cc1c[nH]c2ccccc12)N(C)C(=O)OCC1c2ccccc2-c2ccccc21)C(=O)N[C@@H](CC(=O)O)C(=O)N[C@@H](Cc1cccc(Br)c1)C(N)=O [HT-249, Fmoc-(N-Me-D-Trp)-Nle-Asp-Phe(3-Br)-NH2] (Fmoc-[dNMeW][Nle]D[Phe(3-Br)]-NH2)		0.00226 µM		EC50 ([2]; in presence of 10 nM CCK8): 4.55 µM
CCCC[C@H](NC(=O)[C@@H](Cc1c[nH]c2ccccc12)N(C)C(=O)OCC1c2ccccc2-c2ccccc21)C(=O)N[C@@H](CC(=O)OC)C(=O)N[C@@H](Cc1cccc(Br)c1)C(N)=O [HT-253, Fmoc-(N-Me-Trp)-Nle-Asp(O-Me)-Phe(3-Br)-NH2] (Fmoc-[dNMeW][Nle]D(OMe)[Phe(3-Br)]-NH2)		0.744 µM		EC50 ([2]; in presence of 10 nM CCK8): 1.92 µM
CS(=O)(=O)CC[C@H](NC(=O)[C@H](N)Cc1c[nH]c2ccccc12)C(=O)N[C@@H](CC(=O)O)C(=O)N[C@@H](Cc1cc(F)c(F)c(F)c1)C(N)=O [HT-74, D-Trp-Met(O2)-Asp-Phe(3,4,5-TriF)-NH2]	11 µM			Agonistic Activity (%) at 10 μM [1]: 55.05%; EC50 [2, 4]: 8.42 µM
CCCC[C@H](NC(=O)[C@H](Cc1c[nH]c2ccccc12)NC(C)=O)C(=O)N[C@@H](CCC(=O)O)C(=O)N[C@@H](Cc1cn(C)c2ccccc12)C(N)=O [HT-241, Ac-D-Trp-Nle-Glu-(1-Me-Trp)-NH2]		3.55 µM	> 10 µM	
COC(=O)C[C@H](NC(=O)[C@H](CCSC)NC(=O)[C@H](N)Cc1c[nH]c2ccccc12)C(=O)N[C@@H](Cc1cccc(F)c1)C(N)=O [HT-78, D-Trp-Met-Asp(Ome)-Phe(3-F)-NH2]				Agonistic Activity (%) at 10 μM [1]: 20.83%; EC50 [2, 5]: ~10 µM
CCCC[C@H](NC(=O)[C@H](Cc1c[nH]c2ccccc12)NC(C)=O)C(=O)N[C@@H](CC(=O)O)C(=O)N[C@@H](Cc1c(C)[nH]c2ccccc12)C(N)=O [HT-229, Ac-D-Trp-Nle-Asp-(2-Me-Trp)-NH2]		8.2 µM	> 10 µM	
CSCC[C@H](NC(=O)[C@H](N)Cc1c[nH]c2ccccc12)C(=O)N[C@@H](CC(=O)O)C(=O)N[C@@H](Cc1ccccc1F)C(N)=O [HT-25, D-Trp-Met-Asp-Phe(2-F)-NH2]	0.225 µM			Agonistic Activity (%) at 10 μM [1]: 89.41%; EC50 [2, 4]: 0.603 µM
CCCC[C@H](NC(=O)[C@H](Cc1c[nH]c2ccccc12)NC(C)=O)C(=O)N[C@@H](CCC(=O)O)C(=O)N[C@@H](Cc1c[nH]c2ccc(O)cc12)C(N)=O [HT-239, Ac-D-Trp-Nle-Glu-(5-HTP)-NH2] (Ac-W[Nle]E[Trp(5-OH)]-NH2)			> 10 µM	EC50 ([1]; Fluo-8 calcium flux, bound in μM): > 10 µM

Now from value to molecule, other results behind:

EC50 [1, 3]	EC50 [1, 6]	EC50 [2, 7]	Compound	further results
6.05 µM			CS(=O)(=O)CC[C@H](NC(=O)[C@H](N)Cc1c[nH]c2ccccc12)C(=O)N[C@@H](CC(=O)O)C(=O)N[C@@H](Cc1cccc(Br)c1)C(N)=O [HT-63, D-Trp-Met(O2)-Asp-Phe(3-Br)-NH2]	Agonistic Activity (%) at 10 μM [1]: 48.46%; EC50 [2, 4]: 7.5 µM
3.9 µM			CSCC[C@H](NC(=O)[C@@H](Cc1cc[nH]c1)NC(C)=O)C(=O)N[C@@H](CC(=O)O)C(=O)N[C@@H](Cc1cccc(Br)c1)C(N)=O [HT-181, Ac-D-His-Met-Asp-Phe(3-Br)-NH2]	EC50 [2, 5]: > 10 µM
	0.527 µM	> 10 µM	CCCC[C@H](NC(=O)[C@@H](Cc1c[nH]c2ccc(O)cc12)NC(C)=O)C(=O)N[C@@H](CCC(=O)O)C(=O)N[C@@H](Cc1cccc(Br)c1)C(N)=O [HT-240, Ac-(5-HTP)-Nle-Glu-Phe(3-Br)-NH2] (Ac-[dTrp(5-OH)][Nle]E[Phe(3-Br)]-NH2)	
	0.0344 µM		CCCC[C@H](NC(=O)[C@H](Cc1c[nH]c2ccccc12)NC(C)=O)C(=O)N[C@@H](CCC(=O)O)C(=O)N[C@@H](Cc1cccc(Br)c1)C(N)=O [HT-238, Ac-D-Trp-Nle-Glu-Phe(3-Br)-NH2]	EC50 ([2]; in presence of 10 nM CCK8): 28.2 µM
	11 µM	> 10 µM	CCCCCCC[C@@H](NC(C)=O)C(=O)N[C@@H](CCCC)C(=O)N[C@@H](CCC(=O)O)C(=O)N[C@@H](Cc1cccc(Br)c1)C(N)=O [HT-264, Ac-Na-Nle-Glu-Phe(3-Br)-NH2]	
1.34 µM			CSCC[C@H](NC(=O)[C@@H](Cc1c[nH]c2ccccc12)NC(C)=O)C(=O)N[C@@H](CCC(=O)O)C(=O)N[C@@H](Cc1cccc(Br)c1)C(N)=O [HT-186, Ac-D-Trp-Met-Glu-Phe(3-Br)-NH2] (Ac-[dW]ME[Phe(3-Br)]-NH2)	EC50 [2, 4]: 7.71 µM
